Experimental data published in the supplement of paper PMC11451515.

Test system: NOMO1
Assay: cell viability relative to DMSO control; higher = less cytotoxic
Conditions: 48 h
How it was run: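 Library compounds in DMSO were pin-dosed into 1536-well plates (5 μl) holding NOMO1 or SEM (500 cells/well) or P12-Ichikawa (1000 cells/well) leukemia cells, across an 11-point threefold series of 47 μM to 0.79 nM. Each cell line had been adapted for at least four passages in each medium. CellTiter-Glo One luminescence was read after 48 h at 37°C. Viability is the per-plate percentage relative to DMSO wells, with cell-free wells as background.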

[1] = HPLM + 10% dialyzed FBS, 0.000781 µM
[2] = HPLM + 10% dialyzed FBS, 0.00234 µM
[3] = HPLM + 10% dialyzed FBS, 0.00702 µM
[4] = HPLM + 10% dialyzed FBS, 0.0211 µM
[5] = HPLM + 10% dialyzed FBS, 0.0632 µM
[6] = HPLM + 10% dialyzed FBS, 0.19 µM
[7] = HPLM + 10% dialyzed FBS, 0.569 µM
[8] = HPLM + 10% dialyzed FBS, 1.71 µM
[9] = HPLM + 10% dialyzed FBS, 5.12 µM
[10] = HPLM + 10% dialyzed FBS, 15.4 µM
[11] = HPLM + 10% dialyzed FBS, 46.1 µM
[12] = RPMI 5 mM glucose + 10% FBS, 0.000781 µM
[13] = RPMI 5 mM glucose + 10% FBS, 0.00234 µM
[14] = RPMI 5 mM glucose + 10% FBS, 0.00702 µM
[15] = RPMI 5 mM glucose + 10% FBS, 0.0211 µM
[16] = RPMI 5 mM glucose + 10% FBS, 0.0632 µM
[17] = RPMI 5 mM glucose + 10% FBS, 0.19 µM
[18] = RPMI 5 mM glucose + 10% FBS, 0.569 µM
[19] = RPMI 5 mM glucose + 10% FBS, 1.71 µM
[20] = RPMI 5 mM glucose + 10% FBS, 5.12 µM
[21] = RPMI 5 mM glucose + 10% FBS, 15.4 µM
[22] = RPMI 5 mM glucose + 10% FBS, 46.1 µM
[23] = RPMI 5 mM glucose + 10% dialyzed FBS, 0.000781 µM
[24] = RPMI 5 mM glucose + 10% dialyzed FBS, 0.00234 µM
[25] = RPMI 5 mM glucose + 10% dialyzed FBS, 0.00702 µM
[26] = RPMI 5 mM glucose + 10% dialyzed FBS, 0.0211 µM
[27] = RPMI 5 mM glucose + 10% dialyzed FBS, 0.0632 µM
[28] = RPMI 5 mM glucose + 10% dialyzed FBS, 0.19 µM
[29] = RPMI 5 mM glucose + 10% dialyzed FBS, 0.569 µM
[30] = RPMI 5 mM glucose + 10% dialyzed FBS, 1.71 µM
[31] = RPMI 5 mM glucose + 10% dialyzed FBS, 5.12 µM
[32] = RPMI 5 mM glucose + 10% dialyzed FBS, 15.4 µM
[33] = RPMI 5 mM glucose + 10% dialyzed FBS, 46.1 µM

O=C1N\C=N/C2=C1C=N[NH]2
cell viability [1]: 89.6% | cell viability [2]: 88.4% | cell viability [3]: 96.1% | cell viability [4]: 97% | cell viability [5]: 97.5% | cell viability [6]: 86.8% | cell viability [7]: 97.1% | cell viability [8]: 103% | cell viability [9]: 101% | cell viability [10]: 67.1% | cell viability [11]: 30% | cell viability [12]: 77.9% | cell viability [13]: 87.3% | cell viability [14]: 83% | cell viability [15]: 95.4% | cell viability [16]: 94.9% | cell viability [17]: 81.7% | cell viability [18]: 86.5% | cell viability [19]: 93% | cell viability [20]: 94.3% | cell viability [21]: 91.5% | cell viability [22]: 81% | cell viability [23]: 71.6% | cell viability [24]: 78.3% | cell viability [25]: 69.5% | cell viability [26]: 84.8% | cell viability [27]: 70.8% | cell viability [28]: 91.3% | cell viability [29]: 83.2% | cell viability [30]: 88.6% | cell viability [31]: 89.1% | cell viability [32]: 81.2% | cell viability [33]: 71.9%

Cc1ccc(-c2cc(C(F)(F)F)nn2-c2ccc([S+](N)(=O)[O-])cc2)cc1
cell viability [12]: 115% | cell viability [13]: 122% | cell viability [14]: 110% | cell viability [15]: 126% | cell viability [16]: 126% | cell viability [17]: 114% | cell viability [18]: 115% | cell viability [19]: 112% | cell viability [20]: 112% | cell viability [21]: 128% | cell viability [22]: 103% | cell viability [23]: 121% | cell viability [24]: 119% | cell viability [25]: 121% | cell viability [26]: 118% | cell viability [27]: 107% | cell viability [28]: 110% | cell viability [29]: 117% | cell viability [30]: 121% | cell viability [31]: 104% | cell viability [32]: 109% | cell viability [33]: 92.7%

OC[C@H]1OC(OC2=CC3=C(C(=C2)O)C(=O)\C(=C/O3)C4=CC=C(O)C=C4)[C@H](O)[C@@H](O)[C@@H]1O (stereo partly specified)
cell viability [1]: 94% | cell viability [2]: 86.6% | cell viability [3]: 79.6% | cell viability [4]: 92.8% | cell viability [5]: 89.9% | cell viability [6]: 89.2% | cell viability [7]: 72% | cell viability [8]: 61.9% | cell viability [9]: 88.9% | cell viability [10]: 72% | cell viability [11]: 74.2% | cell viability [12]: 78.9% | cell viability [13]: 92.5% | cell viability [14]: 85.9% | cell viability [15]: 77.8% | cell viability [16]: 92% | cell viability [17]: 90.7% | cell viability [18]: 87.9% | cell viability [19]: 84.7% | cell viability [20]: 84.1% | cell viability [21]: 86.3% | cell viability [22]: 72% | cell viability [23]: 88.5% | cell viability [24]: 73.9% | cell viability [25]: 78.6% | cell viability [26]: 78.5% | cell viability [27]: 80.8% | cell viability [28]: 73.4% | cell viability [29]: 80.4% | cell viability [30]: 82.8% | cell viability [31]: 76.7% | cell viability [32]: 77.8% | cell viability [33]: 66.7%

CC(C)c1c(C(=O)Nc2ccccc2)c(-c2ccccc2)c(-c2ccc(F)cc2)n1CC[C@@H](O)C[C@@H](O)CC(=O)[O-]
cell viability [1]: 109% | cell viability [2]: 108% | cell viability [3]: 118% | cell viability [4]: 112% | cell viability [5]: 94.4% | cell viability [6]: 97.4% | cell viability [7]: 100% | cell viability [8]: 97.2% | cell viability [9]: 88.4% | cell viability [10]: 75.6% | cell viability [11]: 52.4% | cell viability [12]: 96.4% | cell viability [13]: 91.3% | cell viability [14]: 94.6% | cell viability [15]: 90.8% | cell viability [16]: 88.2% | cell viability [17]: 116% | cell viability [18]: 97.6% | cell viability [19]: 80.1% | cell viability [20]: 83.7% | cell viability [21]: 83.5% | cell viability [22]: 61.5% | cell viability [23]: 90.4% | cell viability [24]: 100% | cell viability [25]: 90.9% | cell viability [26]: 89.6% | cell viability [27]: 102% | cell viability [28]: 103% | cell viability [29]: 92.2% | cell viability [30]: 77.9% | cell viability [31]: 73.9% | cell viability [32]: 67.3% | cell viability [33]: 48.4%
